Where two headings read alike, the source gives them in different places. Ends that are not written are not given here.
Test system: Escherichia coli
Method in brief: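 Broth microdilution per CLSI M07-A9 in cation-supplemented Mueller-Hinton broth (Ca++ 20-25 mg/L, Mg++ 10-12.5 mg/L). Peptides tested in two-fold dilutions from 0.5 to 512 μg/mL. Inoculum was a 1/100 dilution of a 0.5 McFarland suspension.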

## ILRWPWWPWRRK-NH2 [Omiganan, ILRWPWWPWRRK, reference compound]
E. coli ABC11, resistance gene ctx-m-2
  MIC: 64 µg/mL
E. coli Cos15, resistance gene per + tem
  MIC: 64 µg/mL
E. coli LCA1, resistance gene ctx-m-2 + tem-1
  MIC: 64 µg/mL
E. coli M5306, resistance gene ctx-m-2 + tem-1 + per-2
  MIC: 64 µg/mL
E. coli M7859, resistance gene cit
  MIC: 64 µg/mL
E. coli M9209, resistance gene kpc
  MIC: 64 µg/mL
E. coli NEU23, resistance gene oxa-GIII + tem
  MIC: 32 µg/mL

Reference: patent US9359409B2, “Antimicrobial peptides, compositions comprising the same and uses thereof” (priority 2012, dated 2016)
